Source: ChEMBL document CHEMBL1123599, “Diketopiperazines as a new class of platelet-activating factor inhibitors” (J Med Chem, 1987)

Species: Oryctolagus cuniculus
Assay: Inhibition of rabbit platelet aggregation induced by PAF (Platelet activating factor)
Type: functional

| Compound | IC50 |
| --- | --- |
| CSC[C@H]1NC(=O)[C@@H](Cc2cn(C)c3ccccc23)NC1=O | 7900 nM |
| CSCC[C@H]1NC(=O)[C@@H]([C@@H](C)c2cccc3ccccc23)NC1=O | 1900 nM |
| CSCC[C@H]1NC(=O)[C@@H]([C@@H](C)c2cn(C)c3ccccc23)NC1=O | 3600 nM |
| CSC[C@@H]1NC(=O)[C@@H](Cc2cn(C)c3ccccc23)NC1=O | 36000 nM |
| CSCC[C@H]1NC(=O)[C@@H]([C@H](C)c2cccc3ccccc23)NC1=O | 180 nM |
| CSCC[C@H]1NC(=O)[C@@H]([C@H](C)c2cn(C)c3ccccc23)NC1=O | 700 nM |
| CSC[C@@H]1N=C(C2=C(O)C=CC2)[C@H]([C@@H](C)[C@@H]2C(=O)N(C)c3ccccc32)NC1=O | 370 nM |
| COc1cc([C@H]2CC[C@H](c3cc(OC)c(OC)c(OC)c3)O2)cc(OC)c1OC | 320 nM |
| CSC[C@H]1NC(=O)[C@H](Cc2cn(C)c3ccccc23)NC1=O | 140000 nM |
| CSC[C@@H]1NC(=O)[C@H](Cc2cn(C)c3ccccc23)NC1=O | 250000 nM |
| CSCCC1NC(=O)C(Cc2cn(C)c3ccccc23)NC1=O (stereo unspecified) | 2300 nM |
